Experimental data: ChEMBL document CHEMBL1201862, “PubChem BioAssay data set” (2004)
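Cells were grown in 96-well plates and exposed to each compound for 48 hours at five concentrations; endpoints were interpolated linearly between bracketing concentrations, or set to the highest concentration if not reached. The concentration for 50% growth inhibition is given as GI50.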 The source made the active and inactive calls. Rule as the data show it: active = GI50 up to about 1.1 µM and inactive = higher.

Assays:
Assay in all cases: NCI anticancer screen, dose series, 48 h
OVCAR-4 = test system: OVCAR-4
SK-MEL-5 = test system: SK-MEL-5
UACC-257 = test system: UACC-257
SF-295 = test system: SF-295
NCI-H460 = test system: NCI-H460
SK-MEL-2 = test system: SK-MEL-2
NCI-H23 = test system: NCI-H23
OVCAR-5 = test system: OVCAR-5
PC-3 = test system: PC-3
SK-OV-3 = test system: SK-OV-3
NCI-H226 = test system: NCI-H226
UACC-62 = test system: UACC-62
MOLT-4 = test system: MOLT-4
ACHN = test system: ACHN
SNB-75 = test system: SNB-75
OVCAR-8 = test system: OVCAR-8
BT-549 = test system: BT-549
UO-31 = test system: UO-31
SN12C = test system: SN12C
A549 = test system: A549

Compound	GI50 (OVCAR-4)	GI50 (SK-MEL-5)	GI50 (UACC-257)	GI50 (SF-295)	GI50 (NCI-H460)	GI50 (SK-MEL-2)	GI50 (NCI-H23)	GI50 (OVCAR-5)	GI50 (PC-3)	GI50 (SK-OV-3)	GI50 (NCI-H226)	GI50 (UACC-62)	GI50 (MOLT-4)	GI50 (ACHN)	GI50 (SNB-75)	GI50 (OVCAR-8)	GI50 (BT-549)	GI50 (UO-31)	GI50 (SN12C)	GI50 (A549)
C=C=C(CC1CCCCC1=O)S(=O)(=O)c1ccccc1 (stereo not given)	> 10 µM (inactive)	> 4.8 µM (inactive)	> 10 µM (inactive)	> 10 µM (inactive)	> 10 µM (inactive)	> 10 µM (inactive)	5.13 µM (inactive)	> 10 µM (inactive)	> 10 µM (inactive)	> 10 µM (inactive)	> 10 µM (inactive)	> 5.12 µM (inactive)	0.0489 µM (active)	> 10 µM (inactive)	> 6.04 µM (inactive)	> 9.46 µM (inactive)	> 10 µM (inactive)	> 10 µM (inactive)	7.41 µM (inactive)	> 10 µM (inactive)
CCNC(=O)OCC1C2=C(C(=O)C(C)=C(N)C2=O)N2CC3C(N3C)C12OC (stereo not given)	26.6 µM (inactive)	12.8 µM (inactive)	62.4 µM (inactive)	7.76 µM (inactive)	0.18 µM (active)	30.3 µM (inactive)	1.4 µM (inactive)	> 72.6 µM (inactive)	24.5 µM (inactive)	27.4 µM (inactive)	> 87.7 µM (inactive)	11.9 µM (inactive)	3.28 µM (inactive)	4.22 µM (inactive)	21.7 µM (inactive)	21.7 µM (inactive)	11.5 µM (inactive)	19.5 µM (inactive)	13.5 µM (inactive)	5.11 µM (inactive)
CC(NC(=O)C(N)CC(=O)O)NC(=O)N(C)C(C)(C)C (stereo not given)	> 100 µM (inactive)	> 100 µM (inactive)	> 100 µM (inactive)	> 100 µM (inactive)	> 100 µM (inactive)	> 100 µM (inactive)	> 100 µM (inactive)	> 100 µM (inactive)	> 100 µM (inactive)	> 100 µM (inactive)	> 100 µM (inactive)	> 100 µM (inactive)	> 100 µM (inactive)	> 100 µM (inactive)	> 100 µM (inactive)	> 100 µM (inactive)	> 100 µM (inactive)	> 100 µM (inactive)	> 100 µM (inactive)	> 100 µM (inactive)
O=C(NCC1Nc2ccncc2S(=O)(=O)N1)c1ccc(Br)cc1 (stereo not given)	64.6 µM (inactive)	> 100 µM (inactive)	> 100 µM (inactive)	> 100 µM (inactive)	> 100 µM (inactive)	14.9 µM (inactive)	66.1 µM (inactive)	> 100 µM (inactive)	17.7 µM (inactive)	> 100 µM (inactive)	> 100 µM (inactive)	58.7 µM (inactive)	46.2 µM (inactive)	> 100 µM (inactive)	73.6 µM (inactive)	35.9 µM (inactive)	69.7 µM (inactive)	25.1 µM (inactive)	> 100 µM (inactive)	> 100 µM (inactive)
COc1ccc(Cc2coc3ccccc3c2=O)cc1OC	28.4 µM (inactive)	21.3 µM (inactive)	59.2 µM (inactive)	47.2 µM (inactive)	68.1 µM (inactive)	> 100 µM (inactive)	28.3 µM (inactive)	> 100 µM (inactive)	93.5 µM (inactive)	> 100 µM (inactive)	94 µM (inactive)	> 100 µM (inactive)	49.3 µM (inactive)	72.4 µM (inactive)	> 100 µM (inactive)	> 100 µM (inactive)	38 µM (inactive)	38.5 µM (inactive)	> 100 µM (inactive)	> 100 µM (inactive)
COc1ccc(C2CC(c3c(O)ccc4ccccc34)=NN2C(C)=O)cc1OC (stereo not given)	44.3 µM (inactive)	21.9 µM (inactive)	34.8 µM (inactive)	37.4 µM (inactive)	28.1 µM (inactive)	19.3 µM (inactive)	23.4 µM (inactive)	40.6 µM (inactive)	23.6 µM (inactive)	57.8 µM (inactive)	36.2 µM (inactive)	15.1 µM (inactive)	19.3 µM (inactive)	35.4 µM (inactive)	19.8 µM (inactive)	34.4 µM (inactive)	17 µM (inactive)	23.1 µM (inactive)	26.5 µM (inactive)	24.9 µM (inactive)
OCc1ccc2c(c1)CC1(C2)Cc2cc3c(cc2C1O)CCC3 (stereo not given)	10.4 µM (inactive)	3.04 µM (inactive)	2.3 µM (inactive)	2.2 µM (inactive)	3.28 µM (inactive)	3.33 µM (inactive)	5.35 µM (inactive)	18.9 µM (inactive)	2.34 µM (inactive)	8.75 µM (inactive)	7.31 µM (inactive)	3.72 µM (inactive)	4.09 µM (inactive)	6.67 µM (inactive)	3.85 µM (inactive)	5.74 µM (inactive)	2.86 µM (inactive)	5.9 µM (inactive)	3.22 µM (inactive)	6.43 µM (inactive)
COC(=O)CCSC1=CC(=O)c2nc3ccccc3c3ccnc1c23	19.8 µM (inactive)	18.8 µM (inactive)	17.2 µM (inactive)	58.7 µM (inactive)	16.1 µM (inactive)	23.2 µM (inactive)	15.6 µM (inactive)	42.7 µM (inactive)	15.4 µM (inactive)	54.3 µM (inactive)	47.1 µM (inactive)	8.09 µM (inactive)	9.95 µM (inactive)	19.4 µM (inactive)	> 100 µM (inactive)	17.1 µM (inactive)	17.7 µM (inactive)	15.3 µM (inactive)	19.7 µM (inactive)	> 93.1 µM (inactive)
